Experimental data taken from article PMC8899516, “Structure-Activity Relationship Studies of 4-((4-(2-fluorophenyl)piperazin-1-yl)methyl)-6-imino-N-(naphthalen-2-yl)-1,3,5-triazin-2-amine (FPMINT) Analogues as Inhibitors of Human Equilibrative Nucleoside Transporters” (Frontiers in Pharmacology, 2022).

Columns and labels:
[1] = tested on: ENT2; assay: Cell surface biotinylation and internalization assay; type: cell-based, human; conditions: 50 µM, 24 h or 48 h, PK15NTD cells
Experimental: (§1) To label all surface proteins, after washing with ice-cold PBS, PK15NTD/ENT1 and PK15NTD/ENT2 cells were incubated with sulfo-NHS-SS-biotin (300 μg/ml) for 30 min at 4°C to biotinylate cell surface proteins. The unbound biotin was washed away by PBS containing 0.1% BSA at 4°C. The biotinylated cells were then incubated with the original growth media with or without 50 µM compound 3c and returned to the 5% CO2 incubator at 37 °C for 24 h or 48 h for transporter internalization. Transporter trafficking was stopped by rapidly cooling the cells at 4°C. […]
(§2) FIGURE 5 Effects of compound 3c on cytotoxicity and protein expressions of ENT1 and ENT2. Cytotoxicity of compound 3c was measured after 24 h or 48 h treatment of PK15NTD/ENT1 and PK15NTD/ENT2 cells with various concentrations of compound 3c (0.5, 5 and 50 μM) or a vehicle (0.5% DMSO, as a control) (A) The cell viability and (B) cell membrane integrity were determined by the MTT assay and LDH release, respectively (C) PK15NTD/ENT1 and (D) PK15NTD/ENT2 cells were incubated with 50 μM of compound 3c or a vehicle (0.5% DMSO, as a control) for 24 or 48 h. […] After cleavage of extracellular biotin, internalized biotinylated proteins were precipitated with immobilized streptavidin beads and detected with an anti-ENT1 and anti-ENT2 antibodies by western blotting. […]

[2] = tested on: ENT1; assay: as above; type: cell-based, human; conditions: 50 µM, 24 h or 48 h, PK15NTD cells
Experimental: as §1, §2

[3] = tested on: ENT1; assay: Western blotting of ENT1 protein expression; type: cell-based, human; conditions: 50 µM, 24 h or 48 h
Experimental: PK15NTD/ENT1 and PK15NTD/ENT2 cells were grown to confluence in 10-cm culture dishes and treated with 50 µM of compound 3c or an equivalent volume of a vehicle (0.5% DMSO) for 24 h or 48 h. The cells were washed thrice with ice-cold PBS. Total protein was extracted by cell lysis in a lysis buffer (5 mM sodium monophosphate, pH 8) with a protease inhibitor cocktail (Sigma, St Louis, MO, United States; 1:1,000 [v/v]). The protein content was measured by bicinchoninic acid assay. Protein samples were separated by 12.5% sodium dodecyl sulfate–polyacrylamide gel electrophoresis (SDS-PAGE) and blotted onto polyvinylidene difluoride (PVDF) membranes. […] The membranes were then again washed, and the bound secondary antibodies were detected using an enhanced chemiluminescence kit (Bio-Rad, Hercules, CA, United States). […] To semi-quantify the ENT1 and ENT2 protein levels, the same membranes were washed three times with a stripping buffer for 10 min at room temperature, and the protein expression level of β-actin was measured using monoclonal mouse anti-β-actin primary antibodies (1:3,000 [v/v] dilution in a blocking solution). […]
FIGURE 5 Effects of compound 3c on cytotoxicity and protein expressions of ENT1 and ENT2. […] Total ENT1 and ENT2 from whole-cell lysates were also detected for a comparison. β-actin served as an internal reference. […]

[4] = target: T1, ENT2 (Homo sapiens, UniProt Q14542); assay: Wash-out reversibility of [3H]uridine uptake inhibition in PK15NTD/ENT2 cells; type: cell-based; conditions: 50 µM, incubation 1–60 min, washed five times
T1 construct: expressed in transfected cells
T1 sequence (Q14542 1-456): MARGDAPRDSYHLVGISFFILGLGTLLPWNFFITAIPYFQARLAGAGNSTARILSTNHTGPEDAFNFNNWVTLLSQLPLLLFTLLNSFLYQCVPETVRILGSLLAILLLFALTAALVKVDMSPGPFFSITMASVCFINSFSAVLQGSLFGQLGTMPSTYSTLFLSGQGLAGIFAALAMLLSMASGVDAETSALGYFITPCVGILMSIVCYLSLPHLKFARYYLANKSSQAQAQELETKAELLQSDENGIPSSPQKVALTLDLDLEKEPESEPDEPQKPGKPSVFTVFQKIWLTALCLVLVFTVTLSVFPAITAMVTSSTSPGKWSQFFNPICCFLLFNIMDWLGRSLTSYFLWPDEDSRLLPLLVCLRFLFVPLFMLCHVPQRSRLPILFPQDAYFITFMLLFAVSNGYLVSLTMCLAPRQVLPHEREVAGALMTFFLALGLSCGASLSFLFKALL
Experimental: To determine whether the inhibitory effects of compound 3c were reversible or irreversible, PK15NTD/ENT1 and PK15NTD/ENT2 cells were incubated with 50 µM of compound 3c for different time periods (1–60 min). The cells were then washed five times with buffer. After wash-out for every single time [^3H]uridine uptake was measured. […] The longer the incubation time with compound 3c, the more difficult it was to wash-out the inhibitory effects of compound 3c.
FIGURE 6 Reversibility of the inhibitory effects of compound 3c on ENT1 and ENT2 (A) PK15NTD/ENT1 and (B) PK15NTD/ENT2 cells were incubated with 50 μM of compound 3c or a vehicle (0.5% DMSO, as a control) for different time (0–60 min) The cells were then washed five times. After wash-out for every single time [^3H]uridine uptake (1 μM, 2 μCi/ml) was measured. Data are presented as mean ± SE of three experiments. ^* p < 0.05 compared with the fifth wash.

Compound: Cc1cccc(Nc2nc(N)nc(CN3CCN(c4ccc(F)cc4)CC3)n2)c1 [Compound 3c]
- location of biotinylated ENT2 (internalization) [1]: exclusively found at the plasma membrane
- location of biotinylated ENT1 (internalization) [2]: exclusively found at the plasma membrane
- protein expression level of ENT1 [3]: unaltered
- reversibility of inhibitory effect on ENT2 by washing [4]: only partially reversed by washing
